In patent US20260097037A1, “FUSED RING COMPOUND HAVING GLP-1 RECEPTOR AGONIST EFFECT” (Shionogi & Co., Ltd., priority 2022, published 2026):
pEC50: −log10 of the molar value.

Target: T1, Human GLP-1 receptor stably expressing cells (hGLP-1R/CHO-K1 cells) (Homo sapiens, UniProt P43220)
T1 construct: expressed in transfected cells
Assay: Measurement of GLP-1 receptor agonist activity (cAMP assay)
Format: cell-based
Conditions: for Emax: CHO-K1, maximum effect, cAMP with 2 nM human GLP-1 (7-36) = 100%, DMSO only = 0%, read-out: Emax; for pEC50: increase in cAMP concentration in hGLP-1R/CHO-K1 cells, 37° C. 1 hour
Experimental: Test Example 1: Measurement of GLP-1 Receptor Agonist Activity
Human GLP-1 receptor stably expressing cells (hGLP-1R/CHO-K1 cells) are cultured in an a-MEM medium (Sigma) containing 10% FBS (Hyclone), 2% GlutaMAX (Gibco), 1% G418 (Nacalai Tesque), and 1% Penicillin-Streptomycin Mixed Solution (Sigma) at 37° C. under 5% CO2 conditions, and recovered by treating a 10 fold diluted 5.0 g/1-trypsin/5.3 mmol/1-EDTA solution (Nacalai Tesque) and cryopreserved.
A DMSO solution containing the compound of the present invention or human GLP-1 (7-36) (Phoenix Pharmaceuticals) is dispensed into a 384-well microplate (Greiner) at 62.5 nL/well, and in addition, 400 μM Forskolin (Nacalai Tesque) is dispensed therein at 7.5 nL/well. Subsequently, the frozen GLP-1 R/CHO-K1 cells are thawed in a thermostatic bath at 37° C., suspended in HBSS buffer (GIBCO) containing 0.1% BSA (Sigma), 20 mM HEPES, 0.1 mM IBMX (Sigma), and 0.2 mM RO20-1724 (Calbiochem) at 2×10^4 cells/mL, and the cell suspension is added at 6 μL/well. The solution was incubated at 37° C. for 1 hour and intracellular cAMP concentration is measured using cAMP Gs dynamic kit (Cisbio) according to the protocol attached to the product. Specifically, a cAMP-d2/Anti-cAMP-Cryptate (1/1) mixture solution is added in a total amount of 6 μL/well, and is incubated at room temperature for 1 hour, and then, time-resolved fluorescence is measured using PHERAstar (BMG Labtech).
Assuming that the cAMP concentration when human GLP-1 (7-36) is dispensed to a final concentration of 2 nM is 100% and the cAMP concentration when only DMSO is dispensed is 0%, the 50% effective concentration (EC50) and the maximum effect (Emax) of the compound of the present invention are calculated using an increase in the cAMP concentration as an index, using TIBCO Spotfire (TIBCO Software). The dilution concentration or the dilution solvent are changed as necessary.
The compounds of the present invention were tested essentially as described above.

T1 sequence (P43220 24-463): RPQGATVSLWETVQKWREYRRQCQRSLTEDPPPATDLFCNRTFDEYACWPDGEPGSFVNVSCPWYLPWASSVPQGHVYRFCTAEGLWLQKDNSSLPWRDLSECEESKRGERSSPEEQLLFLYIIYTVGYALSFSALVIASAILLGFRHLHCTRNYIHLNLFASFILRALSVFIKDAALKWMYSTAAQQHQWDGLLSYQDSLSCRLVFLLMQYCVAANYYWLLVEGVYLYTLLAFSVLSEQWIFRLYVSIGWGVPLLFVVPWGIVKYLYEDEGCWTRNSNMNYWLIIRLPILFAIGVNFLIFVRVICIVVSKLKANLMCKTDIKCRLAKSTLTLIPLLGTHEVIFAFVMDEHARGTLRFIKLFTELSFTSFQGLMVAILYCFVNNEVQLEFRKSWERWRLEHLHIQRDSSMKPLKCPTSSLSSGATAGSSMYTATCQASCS

Structure (SMILES) | Emax | pEC50
C[C@H]1c2c(cc(Cl)c3c2OC(C)(c2ccc(Cl)cn2)O3)CCN1Cc1nc2ccc(C(=O)O)cc2n1C[C@@H]1CCO1 (stereo partly shown) [Compound I-092] | 108% | 8.80
C[C@H]1c2c(ccc3c2OC(C)(c2ccc(Cl)cn2)O3)CCN1Cc1nc2ccc(C(=O)O)cc2n1C[C@@H]1CCO1 (stereo partly shown) [Compound I-093] | 96.3% | 8.20
C[C@H]1c2nc(NCc3ccc(Cl)cc3F)c(C(F)(F)F)cc2CCN1Cc1nc2ccc(C(=O)O)cc2n1C[C@@H]1CCO1 [Compound I-094] | 103% | 9.59
C[C@H]1c2nc(CCc3ccc(Cl)cc3)c(C(F)(F)F)cc2CCN1Cc1nc2ccc(C(=O)O)cc2n1C[C@@H]1CCO1 [Compound I-095] | 102% | 9.15
C[C@H]1c2nc(SCc3ccc(Cl)cc3F)c(C(F)(F)F)cc2CCN1Cc1nc2ccc(C(=O)O)cc2n1C[C@@H]1CCO1 [Compound I-096] | 103% | 9.61
C[C@H]1c2nc(OCc3ccc(Cl)cc3F)c(C(F)F)cc2CCN1Cc1nc2ccc(C(=O)O)nc2n1C[C@@H]1CCO1 [Compound I-097] | 109% | 9.46
Cc1ccc(COc2nc3c(cc2C(F)F)CCN(Cc2nc4ccc(C(=O)O)nc4n2C[C@@H]2CCO2)[C@H]3C)cc1 [Compound I-098] | 118% | 8.94
C[C@H]1c2nc(OCc3ccccc3Cl)c(C(F)F)cc2CCN1Cc1nc2ccc(C(=O)O)nc2n1C[C@@H]1CCO1 [Compound I-099] | 106% | 8.59
C[C@H]1c2nc(OCc3ccc(Cl)cc3Cl)c(C(F)F)cc2CCN1Cc1nc2ccc(C(=O)O)nc2n1C[C@@H]1CCO1 [Compound I-100] | 115% | 9.24
C[C@H]1c2nc(OCc3c(F)cc(Cl)cc3F)c(C(F)F)cc2CCN1Cc1nc2ccc(C(=O)O)nc2n1C[C@@H]1CCO1 [Compound I-101] | 108% | 9.33
C[C@H]1c2nc(OCc3cc(F)c(Cl)cc3F)c(C(F)F)cc2CCN1Cc1nc2ccc(C(=O)O)nc2n1C[C@@H]1CCO1 [Compound I-102] | 117% | 9.33
C[C@H]1c2nc(OCc3ccc(C#N)cc3F)c(C(F)F)cc2CCN1Cc1nc2ccc(C(=O)O)nc2n1C[C@@H]1CCO1 [Compound I-103] | 97% | 9.25
O=C(O)c1ccc2nc(C3CC34CCc3cc(C(F)(F)F)c(OCc5ccc(Cl)cc5F)cc3C4)n(C[C@@H]3CCO3)c2c1 (stereo partly shown) [Compound I-104] | 75.3% | 6.29
C[C@H]1c2nc(OCc3ncc(Cl)cc3F)c(C(F)(F)F)cc2CCN1Cc1nc2ccc(C(=O)O)cc2n1C[C@@H]1CCO1 [Compound I-105] | 110% | 9.50
C[C@H]1c2nc(OCc3ncc(Cl)cc3Cl)c(C(F)(F)F)cc2CCN1Cc1nc2ccc(C(=O)O)cc2n1C[C@@H]1CCO1 [Compound I-106] | 112% | 9.43
C[C@H]1c2nc(OCc3c(F)cc(C#N)cc3F)c(C(F)(F)F)cc2CCN1Cc1nc2ccc(C(=O)O)cc2n1C[C@@H]1CCO1 [Compound I-107] | 111% | 9.97
C[C@H]1c2nc(OCc3ccc(Cl)cc3F)c(C(F)F)cc2CCN1Cc1nc2c(F)cc(C(=O)O)cc2n1C[C@@H]1CCO1 [Compound I-108] | 111% | 10.42
C[C@H]1c2nc(OCc3ccc(Cl)cc3)c(C(F)F)cc2CCN1Cc1nc2c(F)cc(C(=O)O)cc2n1C[C@@H]1CCO1 [Compound I-109] | 112% | 10.00
C[C@H]1c2nc(OCc3ccc(F)cc3F)c(C(F)F)cc2CCN1Cc1nc2c(F)cc(C(=O)O)cc2n1C[C@@H]1CCO1 [Compound I-110] | 113% | 10.15
C[C@H]1c2nc(OCc3ccc(Cl)cc3Cl)c(C(F)F)cc2CCN1Cc1nc2c(F)cc(C(=O)O)cc2n1C[C@@H]1CCO1 [Compound I-111] | 110% | 10.17
C[C@H]1c2nc(OCc3ccc(Cl)cn3)c(C(F)F)cc2CCN1Cc1nc2c(F)cc(C(=O)O)cc2n1C[C@@H]1CCO1 [Compound I-112] | 110% | 9.72
C[C@H]1c2nc(OCc3c(F)cc(Cl)cc3F)c(C(F)F)cc2CCN1Cc1nc2c(F)cc(C(=O)O)cc2n1C[C@@H]1CCO1 [Compound I-113] | 116% | 10.48

Structure (SMILES) | Emax | pEC50
C[C@H]1c2nc(OCc3cc(F)c(Cl)cc3F)c(C(F)F)cc2CCN1Cc1nc2c(F)cc(C(=O)O)cc2n1C[C@@H]1CCO1 [Compound I-114] | 113% | 10.22
C[C@H]1c2nc(OCc3ccc(C#N)cc3F)c(C(F)F)cc2CCN1Cc1nc2c(F)cc(C(=O)O)cc2n1C[C@@H]1CCO1 [Compound I-115] | 113% | 10.37
C[C@H]1c2nc(OCc3ccc(Cl)cc3F)c(C(F)F)cc2CCN1Cc1nc2ccc(C(=O)O)c(F)c2n1C[C@@H]1CCO1 [Compound I-116] | 122% | 10.33
C[C@H]1c2nc(OCc3ccc(F)cc3)c(C(F)F)cc2CCN1Cc1nc2ccc(C(=O)O)c(F)c2n1C[C@@H]1CCO1 [Compound I-117] | 118% | 9.43
C[C@H]1c2nc(OCc3ccc(Cl)cc3)c(C(F)F)cc2CCN1Cc1nc2ccc(C(=O)O)c(F)c2n1C[C@@H]1CCO1 [Compound I-118] | 113% | 9.98
Cc1ccc(COc2nc3c(cc2C(F)F)CCN(Cc2nc4ccc(C(=O)O)c(F)c4n2C[C@@H]2CCO2)[C@H]3C)cc1 [Compound I-119] | 120% | 9.83
C[C@H]1c2nc(OCc3ccccc3Cl)c(C(F)F)cc2CCN1Cc1nc2ccc(C(=O)O)c(F)c2n1C[C@@H]1CCO1 [Compound I-120] | 121% | 9.32
C[C@H]1c2nc(OCc3ccc(F)cc3F)c(C(F)F)cc2CCN1Cc1nc2ccc(C(=O)O)c(F)c2n1C[C@@H]1CCO1 [Compound I-121] | 119% | 9.83
C[C@H]1c2nc(OCc3ccc(Cl)cc3Cl)c(C(F)F)cc2CCN1Cc1nc2ccc(C(=O)O)c(F)c2n1C[C@@H]1CCO1 [Compound I-122] | 112% | 10.14
C[C@H]1c2nc(OCc3ccc(Cl)cn3)c(C(F)F)cc2CCN1Cc1nc2ccc(C(=O)O)c(F)c2n1C[C@@H]1CCO1 [Compound I-123] | 127% | 9.56
C[C@H]1c2nc(OCc3c(F)cc(Cl)cc3F)c(C(F)F)cc2CCN1Cc1nc2ccc(C(=O)O)c(F)c2n1C[C@@H]1CCO1 [Compound I-124] | 115% | 10.42
C[C@H]1c2nc(OCc3c(F)cc(F)cc3F)c(C(F)F)cc2CCN1Cc1nc2ccc(C(=O)O)c(F)c2n1C[C@@H]1CCO1 [Compound I-125] | 123% | 10.07
C[C@H]1c2nc(OCc3cc(F)c(Cl)cc3F)c(C(F)F)cc2CCN1Cc1nc2ccc(C(=O)O)c(F)c2n1C[C@@H]1CCO1 [Compound I-126] | 111% | 10.20
C[C@H]1c2nc(OCc3ccc(C#N)cc3F)c(C(F)F)cc2CCN1Cc1nc2ccc(C(=O)O)c(F)c2n1C[C@@H]1CCO1 [Compound I-127] | 121% | 9.98
COc1cc(C(=O)O)cc2c1nc(CN1CCc3cc(C(F)F)c(OCc4ccc(Cl)cc4F)nc3[C@@H]1C)n2C[C@@H]1CCO1 [Compound I-128] | 128% | 10.91
COc1cc(C(=O)O)cc2c1nc(CN1CCc3cc(C(F)F)c(OCc4ccc(Cl)cc4)nc3[C@@H]1C)n2C[C@@H]1CCO1 [Compound I-129] | 131% | 10.52
COc1cc(C(=O)O)cc2c1nc(CN1CCc3cc(C(F)F)c(OCc4ccccc4Cl)nc3[C@@H]1C)n2C[C@@H]1CCO1 [Compound I-130] | 141% | 9.97
COc1cc(C(=O)O)cc2c1nc(CN1CCc3cc(C(F)F)c(OCc4ccc(F)cc4F)nc3[C@@H]1C)n2C[C@@H]1CCO1 [Compound I-131] | 123% | 10.52
COc1cc(C(=O)O)cc2c1nc(CN1CCc3cc(C(F)F)c(OCc4ccc(Cl)cc4Cl)nc3[C@@H]1C)n2C[C@@H]1CCO1 [Compound I-132] | 127% | 10.79
COc1cc(C(=O)O)cc2c1nc(CN1CCc3cc(C(F)F)c(OCc4ccc(Cl)cn4)nc3[C@@H]1C)n2C[C@@H]1CCO1 [Compound I-133] | 122% | 10.23
COc1cc(C(=O)O)cc2c1nc(CN1CCc3cc(C(F)F)c(OCc4c(F)cc(Cl)cc4F)nc3[C@@H]1C)n2C[C@@H]1CCO1 [Compound I-134] | 128% | 10.98
COc1cc(C(=O)O)cc2c1nc(CN1CCc3cc(C(F)F)c(OCc4ccc(C#N)cc4F)nc3[C@@H]1C)n2C[C@@H]1CCO1 [Compound I-135] | 134% | 10.78
